Read-outs that look alike come from different tables or passages of the source.
Assays:
[1] = test system: voltage-dependent Na+ channels in excitable membranes; conditions: cited from earlier work; for Effect on kinetics of activation and inactivation of Na+ channels: electrophysiology, Khodorov et al.; for Effect on kinetics of activation and inactivation of Na+ channels / Use dependence of activator effects: ref Ulbricht, 1969; for Use dependence of activator effects: intact nerve preparations, Albuquerque et al., Bartels-Bernal et al., 1977, Revenko; for Opening of Na+ channels: Catterall
[2] = test system: Na+ channels in synaptosomes; conditions: cited from earlier work; for Synaptosome depolarization: ref VER: Goldring and Blaustein, BTX: Krueger and Blaustein, 1978
[3] = test system: Na+ channels, neuroblastoma cells; conditions: ref Catterall (1977 b); cited from earlier work
[4] = test system: Na+ channels in rat brain synaptosomes; assay: Synaptosome membrane potential; type: cell-based
[5] = test system: Na+ channels in rat brain synaptosomes; type: cell-based
[6] = ref Albuquerque et al., 1973, 1975
[7] = ref Narahashi and Seyama, 1974, 1977 b

COc1ccc(C(=O)O[C@H]2CC[C@@]3(C)[C@@H]4CC[C@H]5[C@]6(O)C[C@H](O)[C@@]7(O)[C@@H](CN8C[C@@H](C)CC[C@H]8[C@@]7(C)O)[C@]6(O)C[C@@]53O[C@]24O)cc1OC [VER, veratridine]
Effect on kinetics of activation and inactivation of Na+ channels [1]; 1975: alter the kinetic properties of the rapid, voltage-sensitive activation and inactivation of Na + channels | Use dependence of activator effects [1]; 1973: use dependent | Opening of Na+ channels [1, 6]: open TTX-sensitive Na + channels | Release of neurotransmitters from synaptosomes ([2]; ref Blaustein, 1975, Cotman et al., 1976): VER-stimu- lated release of neurotransmitters | Ca2+ uptake into synaptosomes ([2]; ref Blaustein, 1975, Nachshen and Blaustein, 1979): VER-stimulated Ca2+ uptake | Uptake of Na+ into synaptosomes ([2]; ref Li and White (1977), Matthews et al. (1979)): VER-stimulated, TTX-sensitive uptake of Na + into synaptosomes | Synaptosome depolarization [2]; 1975: induced synaptosome depolarization | Preference of binding to open over nonopen states [3]: ~ 600 times | Time to complete depolarizing effect ([4]; data not shown): up to 5 min | Depolarization relative to maximally effective BTX or 150 mM K+ (ΔF = 100%) ([4]; highest concentration tested, 300 μM VER, no LqTX): 50-60% | Maximal effect of VER on Na+ uptake with LqTX ([5]; 0.1 μM LqTX): increased in the presence of LqTX to the same level observed in the presence of 10 ~M BTX | Na+ uptake at maximally effective VER with AxTX ([5]; 1 μM AxTX): increased in the presence of AxTX

batrachotoxin [BTX]
Effect on kinetics of activation and inactivation of Na+ channels [1]; 1975: alter the kinetic properties of the rapid, voltage-sensitive activation and inactivation of Na + channels | Use dependence of activator effects [1]; 1973: use dependent | Opening of Na+ channels [1, 6]: open TTX-sensitive Na + channels | Synaptosome depolarization [2]; 1975: induced synaptosome depolarization | Fluorescence increase in low-Na medium ([4]; 30 μM BTX, 140 Ch + 5 Na + 5 K, data not shown): same amount as did increasing the external K concentration from 5 to 8 mM | Time to complete depolarizing effect ([4]; data not shown): up to 5 min | Maximal depolarization, ΔF (% of 150 mM K+) ([4]; maximally effective concentration of BTX, no LqTX): 100% | Effect of BTX >0.3 μM in presence of LqTX ([5]; 0.1 μM LqTX): slightly inhibitory | BTX-stimulated 22Na influx during the second s of incubation ([5]; 10 μM BTX): slightly less than that during the first s | Na+ concentration up to which BTX-stimulated uptake is proportional to Na+ ([5]; 10 μM BTX, 2 s uptake, 2.5-30 mM Na+): up to 5 mM | Na+ uptake rate ([5]; 10 μM BTX, 5 min at 30°C, 5 mM Na+): ~ 1 nmol s-1 mg-1 | Maximal Na+ uptake by BTX without vs with LqTX ([5]; each of three experiments): slightly greater in the absence than in the presence of LqTX | Time to isotopic equilibrium ([5]; presence of 10 μM BTX, 30°C): about 5 s

Grayanotoxin
Opening of Na+ channels [1, 7]: open Na + channels

anthopleurin-A [AxTX]
Potentiation of BTX by AxTX ([5]; 1 μM AxTX): potentiated the effects of BTX without itself greatly increasing Na + uptake | Potentiation of VER by AxTX ([5]; 1 μM AxTX): potentiated the effects of VER | Effect of AxTX alone on Na+ uptake ([5]; absence of VER or BTX): small increase in Na + uptake

CCN1C[C@]2(COC)[C@H](O)C[C@H](OC)[C@@]34[C@@H]5C[C@@]6(O)[C@H](OC(=O)c7ccccc7)[C@@H]5[C@@](OC(C)=O)([C@@H]([C@H](OC)[C@H]23)[C@@H]14)[C@@H](O)[C@@H]6OC [aconitine]
Opening of Na+ channels [1, 7]: open Na + channels

COC(=O)[C@@H]1[C@H]2C[C@H]3c4[nH]c5ccccc5c4CCN3C[C@@H]2CC[C@@H]1O [yohimbine]
Antagonism of Na+ channel openers ([1]; ref Huang et al., 1978): competitive antagonist of these agents

— article PMC2228596 (The Journal of General Physiology, 1980)
